Like-named read-outs stand apart in the source and are kept apart here.
Key:
A549 cells = assay: Cell proliferation PAD assay, A549; assay type: cell-based; settings: Homo sapiens, 48 hours
Method in brief: (§1)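 Each line, seeded at 2,000 cells/well, received duplicate 6.3-fold compound dilutions (10 mM stock, diluted 500× into medium) one day after plating. Exposure lasted 48 h; fixed cells were DAPI-stained and photographed, and images were analysed for live, apoptotic and dead cell numbers.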

TRAF6/Uev1A/Ubc13 = target: T1, TRAF6/Uev1A/Ubc13 (Homo sapiens, UniProt Q9Y4K3); assay: TRAF6/Uev1A/Ubc13 plate-based ubiquitin ligase assay; assay type: biochemical
T1 sequence (Q9Y4K3 1-522): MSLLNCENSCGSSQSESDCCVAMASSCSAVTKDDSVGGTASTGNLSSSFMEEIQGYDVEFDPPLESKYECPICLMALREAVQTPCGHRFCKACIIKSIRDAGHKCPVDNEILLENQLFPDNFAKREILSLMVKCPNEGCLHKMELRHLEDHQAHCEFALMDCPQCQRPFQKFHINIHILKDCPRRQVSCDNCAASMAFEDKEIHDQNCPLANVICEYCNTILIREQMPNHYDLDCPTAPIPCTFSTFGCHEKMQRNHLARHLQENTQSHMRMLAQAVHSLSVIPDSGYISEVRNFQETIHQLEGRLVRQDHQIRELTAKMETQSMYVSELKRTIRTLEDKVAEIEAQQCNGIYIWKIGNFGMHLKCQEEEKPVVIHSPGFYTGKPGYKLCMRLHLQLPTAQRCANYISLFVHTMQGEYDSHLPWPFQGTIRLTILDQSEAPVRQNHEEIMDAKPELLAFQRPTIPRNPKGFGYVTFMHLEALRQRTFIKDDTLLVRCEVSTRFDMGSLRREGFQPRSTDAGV
Method in brief: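 Ligase activity was read as luminescence from anti-Flag/HRP detection of Flag-ubiquitin bound to casein-blocked Ni-plates alongside His-ubiquitin after a 1 h room-temperature reaction. Buffer: 62.5 mM Tris pH 7.5, 6.25 mM MgCl2, 1.0 mM DTT, 2 μM ATP; E1, Uev1a/Ubc13 and TRAF6 added last to start. IC50s derived across compound concentrations.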

H1299 cells = assay: Cell proliferation PAD assay, H1299; assay type: cell-based; settings: Homo sapiens, 48 hours
Method in brief: as §1

[1] = NCI-H1299, 6pt, read-out: H1299 6pt

Row | IC50 (A549 cells; 6pt, read-out: A549 6pt) [µM] | IC50 (TRAF6/Uev1A/Ubc13) [µM] | IC50 (H1299 cells; [1]) [µM] | IC50 (A549 cells; 3pt, read-out: A549 3pt) [µM] | IC50 (H1299 cells; NCI-H1299, 3pt, read-out: H1299 3pt) [µM] | SMILES
1 | < 1 | ≥ 20 | < 1 |  |  | Cc1cccc(-c2ccc([N+](=O)[O-])c3nonc23)c1 [compound 310, 4-(3-Methylphenyl)-7-nitro-2,1,3-benzoxadiazole]
2 | ≥ 20 | 1 to 20 | ≥ 20 | ≥ 20 | ≥ 20 | O=S(=O)(c1ccc(Sc2cccc3cccnc23)c2nonc12)N1CCN(c2ncc(C(F)(F)F)cc2Cl)CC1 [compound 177, 8-{[7-({4-[3-chloro-5-(trifluoromethyl)pyridin-2-yl]piperazin-1-yl}sulfonyl)-2,1,3-benzoxadiazol-4-yl]thio}quinoline]
